In ChEMBL document CHEMBL1146738, “Synthesis and glucose-6-phosphatase inhibitory activity of (thiouriedo)alkanoic acid esters” (Bioorg Med Chem Lett, 2004):

biological target: T1, Glucose-6-phosphatase catalytic subunit 1 (Rattus norvegicus) (UniProt P43428); assay: In vitro inhibition of glucose-6-phosphatase obtained from rat was determined at 100 uM concentration
T1 sequence (whole entry): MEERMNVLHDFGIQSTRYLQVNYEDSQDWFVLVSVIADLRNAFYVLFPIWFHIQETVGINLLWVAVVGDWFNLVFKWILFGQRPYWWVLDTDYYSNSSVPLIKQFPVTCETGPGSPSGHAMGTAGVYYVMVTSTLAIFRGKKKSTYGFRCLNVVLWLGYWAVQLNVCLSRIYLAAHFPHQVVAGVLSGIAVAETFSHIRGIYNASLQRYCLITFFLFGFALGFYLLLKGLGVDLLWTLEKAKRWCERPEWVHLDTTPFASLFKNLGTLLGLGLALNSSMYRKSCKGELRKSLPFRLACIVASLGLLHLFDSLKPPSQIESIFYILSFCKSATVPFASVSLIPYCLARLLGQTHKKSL

SMILES | inhibition [%]
CCOC(=O)CC/N=C(\S)Nc1ccc(Cl)cn1 | 54.4
N/N=C(\S)Nc1ccccn1 | 38.5
COC(=O)C(Cc1c[nH]c2ccccc12)/N=C(\S)Nc1ccc(Cl)cn1 (stereo not given) | 52.2
N=C(N)/N=C(\S)Nc1ccccn1 | 20
COC(=O)C/N=C(\S)Nc1ccc(Cl)cn1 | 74.6

Other lines, results leading:

inhibition [%] | SMILES
29 | CCOC(=O)C(Cc1ccccc1)/N=C(\S)Nc1ccccn1 (stereo not given)
50 | CCOC(=O)C(Cc1ccccc1)/N=C(\S)Nc1ccc(Cl)cn1 (stereo not given)
18 | CCOC(=O)CC/N=C(\S)Nc1ccccn1
21.5 | COC(=O)C(Cc1c[nH]c2ccccc12)/N=C(\S)Nc1ccccn1 (stereo not given)
17.7 | COC(=O)C(C)/N=C(\S)Nc1ccccn1 (stereo not given)
